# Source: patent US7273882B2, “Aminoacetamide acyl guanidines as β-secretase inhibitors” (priority 2006, dated 2007)
# pIC50: −log10 of the molar value. Where two headings read alike, the source gives them in different places.
# Target: T1, BACE1 enzyme (Homo sapiens, UniProt P56817)
# T1 construct: was derived from HEK293 cells; endogenous in cells; washed 48,000 x g pellet of the cell homogenate
# Experiment: Radioligand displacement (binding) assay with radiolabeled BACE inhibitor on HEK293-9B.A1 cell homogenate
# From the text: There are a number of methods by which inhibitors of the BACE enzyme can be identified experimentally. The enzyme can be obtained from membrane samples from natural tissues or cultured cells or can be expressed recombinantly in a host cell by well known methods of molecular biology. The whole enzyme or a portion thereof can be expressed, for example, in bacterial, insect or mammalian cells to obtain a catalytically active enzyme species. The enzymatic activity and/or ligand binding capability of the enzyme can be assessed within these membrane samples, or the enzyme can be purified to varying extents. As an illustrative example, the nucleic acid sequence encoding the pro and catalytic domains of human BACE can be appended on the 5′ end with an untranslated and signal sequence from the gene for acetylcholinesterase, and on the 3′ end with a sequence encoding a poly-histidine tag. This cDNA can then be expressed in Drosophila melanogaster S2 cells in which the signal and pro sequences of the transcribed/translated protein are removed by cellular proteases and the catalytic domain, appended by a C-terminal poly-histidine tag, is secreted out into the cellular medium. The enzyme can then be purified from the culture medium by nickel affinity chromatography by methods well known to those trained in the art [Mallender, W. et al., (2001) “Characterization of recombinant, soluble beta-secretase from an insect cell expression system.” Mol. Pharmacol. 59: 619-626]. Similar strategies for expressing and purifying various forms of BACE in bacterial, mammalian and other cell types would be known to one skilled in the art., A preferred method for determining the potency of a test compound in binding to the BACE enzyme is by monitoring the displacement of a suitable radioligand.
# Radioligand displacement assays with a radiolabeled BACE inhibitor (WO 2004 013098, compound 3, where the methoxy group is substituted for C(^3H)3) were carried out using standard methods (Keen, M. (1999) in Receptor Binding Techniques (Walker, J. M. ed) p. 106 Humana Press, Totowa, N.J.). The HEK293-9B.A1 cell line, which overexpresses the BACE1 enzyme, was derived from HEK293 cells (Simmons, N. L. (1990) A cultured human renal epithelioid cell line responsive to vasoactive intestinal peptide. Exp. Physiol. 75:309-19.) by RAGE™ (Harrington, J. J. et al. (2001) Creation of genome-wide protein expression libraries using random activation of gene expression. Nat. Biotechnol. 19:440-5.; U.S. Pat. Nos. 6,410,266 and 6,361,972). T225 flask cultures of HEK293-9B.A1 were grown to 80% confluency in DMEM supplemented with 2 mM L-glutamine, 10 μg/ml penicillin, 10 μg/ml streptomycin, 3 μg/ml puromycin, 100 nM methotrexate, and 10% fetal bovine serum (Invitrogen, Carlsbad, Calif.), harvested, and resuspended at 2×10^8 cells per 10 ml of lysis buffer consisting of 50 mM HEPES pH 7.0 containing a protease inhibitor cocktail of AEBSF 104 μM, aprotinin 80 nM, leupeptin 2 μM, bestatin 4 μM, pepstatin A 1.5 μM, and E-64 1.4 μM (0.1% of protease inhibitor cocktail P8340, Sigma-Aldrich, St. Louis, Mo.) at 4° C. The resuspended cells were homogenized using a Polytron (Brinkman, Westbury, N.Y.) at setting 6 for 10 sec., then centrifuged at 48,000×g for 10 min. The resulting pellet was washed by repeating the resuspension, homogenization and centrifugation steps. The final pellet was resuspended in buffer at 4° C. to yield a total protein concentration of 5 mg/ml, then aliquots were frozen in liquid nitrogen for further storage at −70° C. Immediately before carrying out a binding assay, an aliquot of cell homogenate was thawed and diluted to a concentration of 100 μg/ml in assay buffer consisting of 50 mM HEPES pH 5.0 and 0.1% CHAPSO. […]
# [1] = radioligand displacement, HEK293-9B.A1 cell homogenate overexpressing BACE1, read-out: Activity Rating (activity based on IC50 values)
# T1 sequence (P56817 46-501): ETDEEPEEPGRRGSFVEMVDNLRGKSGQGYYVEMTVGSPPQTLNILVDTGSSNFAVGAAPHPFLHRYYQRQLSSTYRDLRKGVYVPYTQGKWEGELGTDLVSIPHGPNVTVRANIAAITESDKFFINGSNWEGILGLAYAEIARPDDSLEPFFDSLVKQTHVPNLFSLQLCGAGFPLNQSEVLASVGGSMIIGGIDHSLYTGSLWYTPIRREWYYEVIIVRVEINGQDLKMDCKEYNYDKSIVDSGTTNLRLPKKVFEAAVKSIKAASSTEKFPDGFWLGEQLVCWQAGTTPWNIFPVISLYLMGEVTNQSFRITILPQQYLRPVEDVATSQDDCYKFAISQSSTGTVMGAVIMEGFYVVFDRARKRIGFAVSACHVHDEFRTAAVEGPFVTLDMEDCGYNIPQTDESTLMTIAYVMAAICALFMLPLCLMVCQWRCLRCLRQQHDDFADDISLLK
SMILES,pIC50,pIC50 [1]
Cc1noc(-c2ccccc2)c1C(=O)/N=C(\N)NCc1cc(Cl)c(N)c(Cl)c1 [Example 22],6.00 to 7.00,–
COc1ccc(-c2n[nH]c(C)c2C(=O)N=C(N)NCc2cc(Cl)c(N)c(Cl)c2)cc1 [Example 132],6.00 to 7.00,–
COc1ccc(-c2nsc(C)c2C(=O)NC(N)=NCc2cc(C)c(NC(C)=O)c(Cl)c2)cc1 [Example 144],> 7.00,–
"COc1ccc(-c2noc(C)c2C(=O)/N=C(/N)NCc2cc(Cl)c(N)c(Br)c2)cc1 [Example 148, N-((3-Bromo-4-amino-5-chlorobenzylamino)(amino)methylene)-3-(4-methoxyphenyl)-5-methylisoxazole-4-carboxamide]",6.00 to 7.00,–
"COc1ccc(-c2nsc(C)c2C(=O)/N=C(/N)NCc2cc(Cl)c(N)c(Cl)c2)cc1 [Example 149, N-((4-amino-3,5-dichlorobenzylamino)(amino)methylene)-3-(4-methoxyphenyl)-5-methylisothiazole-4-carboxamide]",> 7.00,–
"COc1ccc(-c2nsc(C)c2C(=O)/N=C(/N)NCc2cc(Cl)c(N)c(Br)c2)cc1 [Example 150, N-((3-Bromo-4-amino-5-chlorobenzylamino)(amino)methylene)-3-(4-methoxyphenyl)-5-methylisothiazole-4-carboxamide]",> 7.00,–
"COC/C=C/c1cc(Cl)cc(CN/C(N)=N/C(=O)c2c(-c3ccc(OC)cc3)noc2C)c1 [Example 152, N-((3-chloro-5-((E)-3-methoxyprop-1-enyl)benzylamino)(amino)methylene)-3-(4-methoxyphenyl)-5-methylisoxazole-4-carboxamide]",6.00 to 7.00,–
"COC/C=C/c1cc(CN/C(N)=N/C(=O)c2c(-c3ccc(OC)cc3)noc2C)cc(Cl)c1N [Example 153, N-((4-amino-3-chloro-5-((E)-3-methoxyprop-1-enyl)benzylamino) (amino)methylene)-3-(4-methoxyphenyl)-5-methylisoxazole-4-carboxamide]",> 7.00,–
"COC/C=C/c1cc(CN/C(N)=N/C(=O)c2c(-c3ccc(OC)cc3)nsc2C)cc(Cl)c1N [Example 154, N-((4-amino-3-chloro-5-((E)-3-methoxyprop-1-enyl)benzylamino) (amino)methylene)-3-(4-methoxyphenyl)-5-methylisothiazole-4-carboxamide]",> 7.00,–
COc1ccc(-c2noc(C)c2C(=O)N=C(N)NCc2cc(Cl)cc(C=CCCO)c2)cc1 [Example 168],6.00 to 7.00,–
CCOC(=O)NCc1cc(Cl)cc(CN/C(N)=N/C(=O)c2c(-c3ccc(OC)cc3)noc2C)c1 [Example 203],6.00 to 7.00,–
"COc1ccc(-c2nsc(C)c2C(=O)/N=C(\N)NCc2cc(Cl)cc(CNC(=O)/C=C/c3ccccc3)c2)cc1 [Example 237, N-(((E)-3-chloro-5-(cinnamamidomethyl)benzylamino)(amino)methylene)-3-(4-methoxyphenyl)-5-methylisothiazole-4-carboxamide]",> 7.00,–
"COc1ccc(-c2nsc(C)c2C(=O)/N=C(\N)NCc2cc(Cl)c(NC(C)=O)c(Cl)c2)cc1 [Example 279, (E)-N-((4-acetamido-3,5-dichlorobenzylamino)(amino)methylene)-3-(4-methoxyphenyl)-5-methylisothiazole-4-carboxamide]",> 7.00,–
"COc1ccc(-c2noc(C)c2C(=O)/N=C(\N)NCc2cc(Cl)c(NC(=O)CN(C)C)c(Cl)c2)cc1 [Example 280, (E)-N-((3,5-dichloro-4-(2-(dimethylamino)acetamido)benzylamino)(amino)methylene)-3-(4-methoxyphenyl)-5-methylisoxazole-4-carboxamide]",–,> 7.00
COc1ccc(-c2nsc(C)c2C(=O)/N=C(\N)NCc2cc(Cl)c(NC(=O)CN(C)C)c(Cl)c2)cc1 [Example 327],–,> 7.00
